Measured values: ChEMBL document CHEMBL1909046, “DrugMatrix in vitro pharmacology data”

Tests used:
[1] = biological target: T1, 3-hydroxy-3-methylglutaryl-coenzyme A reductase (Homo sapiens, UniProt P04035); design: species or system Escherichia coli;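 also: enzyme inhibition assay of HMG-CoA reductase using radiolabeled [14C]HMG-CoA as substrate; in other assays of this panel Not Active means under 50% inhibition at 10 µM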
T1 sequence (P04035 whole entry): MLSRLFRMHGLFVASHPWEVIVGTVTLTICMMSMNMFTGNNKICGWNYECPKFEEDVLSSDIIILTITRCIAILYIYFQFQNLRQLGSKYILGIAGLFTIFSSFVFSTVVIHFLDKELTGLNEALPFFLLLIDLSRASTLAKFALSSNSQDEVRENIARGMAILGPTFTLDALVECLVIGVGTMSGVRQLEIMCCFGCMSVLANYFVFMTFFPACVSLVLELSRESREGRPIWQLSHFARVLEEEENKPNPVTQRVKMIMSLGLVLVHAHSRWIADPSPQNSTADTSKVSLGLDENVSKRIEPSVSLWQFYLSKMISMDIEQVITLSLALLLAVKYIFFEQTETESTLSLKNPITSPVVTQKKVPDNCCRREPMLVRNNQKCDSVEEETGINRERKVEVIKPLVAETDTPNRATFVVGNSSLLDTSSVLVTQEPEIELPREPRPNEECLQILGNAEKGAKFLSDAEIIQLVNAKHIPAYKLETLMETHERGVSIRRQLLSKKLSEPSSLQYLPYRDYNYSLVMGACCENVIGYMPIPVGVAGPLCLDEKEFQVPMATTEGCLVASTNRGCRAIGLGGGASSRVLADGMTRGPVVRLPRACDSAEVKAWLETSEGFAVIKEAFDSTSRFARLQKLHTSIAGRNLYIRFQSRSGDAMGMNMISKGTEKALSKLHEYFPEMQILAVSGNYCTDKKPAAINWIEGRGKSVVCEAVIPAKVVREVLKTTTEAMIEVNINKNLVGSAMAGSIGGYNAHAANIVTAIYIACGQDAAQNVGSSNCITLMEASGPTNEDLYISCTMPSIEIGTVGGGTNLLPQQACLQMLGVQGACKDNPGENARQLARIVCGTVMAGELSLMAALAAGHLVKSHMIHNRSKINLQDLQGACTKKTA

[2] = biological target: Kappa-type opioid receptor (Homo sapiens, UniProt P41145); experiment: DRUGMATRIX: Opiate kappa (OP2, KOP) radioligand binding (ligand: [3H] Diprenorphine); type: cell membranes, HEK293, Membrane; settings: hek293; Not Active = under 50% inhibition at 10 µM
[3] = DRUGMATRIX: Nicotinic Acetylcholine radioligand binding (ligand: [125I] Epibatidine); type: cell membranes, Membrane; settings: imr-32; Not Active = under 50% inhibition at 10 µM
[4] = DRUGMATRIX: ATPase, Na+/K+ enzyme inhibition (substrate: ATP); type: tissue-based, Sus scrofa, Heart; settings: Not Active = under 50% inhibition at 10 µM
Interstitial collagenase = biological target: T2, Interstitial collagenase (Homo sapiens, UniProt P03956); experiment: biochemical; type: tissue-based, Rheumatoid synovial fibroblasts;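 also: MMP-1 enzyme inhibition assay using a peptide substrate; in other assays of this panel Not Active means under 50% inhibition at 10 µM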
T2 sequence (P03956 whole entry): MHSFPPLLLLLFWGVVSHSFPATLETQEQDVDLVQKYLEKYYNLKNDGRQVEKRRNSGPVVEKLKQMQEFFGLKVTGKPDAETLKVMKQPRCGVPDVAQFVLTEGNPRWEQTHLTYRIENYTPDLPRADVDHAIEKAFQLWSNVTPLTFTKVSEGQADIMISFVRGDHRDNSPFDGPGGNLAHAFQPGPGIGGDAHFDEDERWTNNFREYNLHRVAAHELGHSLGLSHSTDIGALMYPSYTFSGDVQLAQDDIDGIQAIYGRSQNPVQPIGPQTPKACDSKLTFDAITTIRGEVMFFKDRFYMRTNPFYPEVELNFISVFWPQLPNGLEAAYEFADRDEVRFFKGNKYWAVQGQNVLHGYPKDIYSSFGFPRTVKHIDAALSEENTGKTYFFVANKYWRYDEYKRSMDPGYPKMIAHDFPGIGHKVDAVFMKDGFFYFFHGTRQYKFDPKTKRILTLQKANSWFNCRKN

[5] = DRUGMATRIX: beta-Lactamase enzyme inhibition (substrate: Nitrocefin); design: species or system Bacillus cereus; settings: Not Active = under 50% inhibition at 10 µM
[6] = DRUGMATRIX: Leukotriene, BLT (LTB4) radioligand binding (ligand: [3H]LTB4); type: cell membranes, Membrane; settings: u-937; Not Active = under 50% inhibition at 10 µM

Chain of Kappa-type opioid receptor (P41145 whole entry): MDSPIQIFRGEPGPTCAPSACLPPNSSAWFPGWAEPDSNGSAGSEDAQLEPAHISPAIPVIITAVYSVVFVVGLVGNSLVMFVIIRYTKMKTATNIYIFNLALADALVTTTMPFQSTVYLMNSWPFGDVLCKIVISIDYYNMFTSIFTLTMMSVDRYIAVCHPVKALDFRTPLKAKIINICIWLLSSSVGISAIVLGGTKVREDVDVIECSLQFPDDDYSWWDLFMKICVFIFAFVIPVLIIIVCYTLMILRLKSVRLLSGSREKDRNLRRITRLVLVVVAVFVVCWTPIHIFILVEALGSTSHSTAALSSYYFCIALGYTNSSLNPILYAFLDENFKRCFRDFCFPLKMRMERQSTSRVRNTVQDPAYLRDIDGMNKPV

CN(C)CCC=C1c2ccccc2CCc2ccccc21 [AMITRIPTYLINE]
Not Active: IC50 [1] | IC50 [2] | IC50 [3] | Ki [3] | IC50 [4] | Ki [4] | IC50 (Interstitial collagenase) | IC50 [5] | Ki [5] | IC50 [6] | Ki [6]

CC(=O)Oc1ccccc1C(=O)O [ASPIRIN]
Not Active: IC50 [1] | IC50 [2] | IC50 [3] | Ki [3] | IC50 [4] | Ki [4] | IC50 (Interstitial collagenase) | IC50 [5] | Ki [5] | IC50 [6] | Ki [6]

CC(=O)OC[C@H]1O[C@@H](n2ncc(=O)[nH]c2=O)[C@H](OC(C)=O)[C@@H]1OC(C)=O [AZARIBINE]
Not Active: IC50 [1] | IC50 [2] | IC50 [3] | Ki [3] | IC50 [4] | Ki [4] | IC50 (Interstitial collagenase) | IC50 [5] | Ki [5] | IC50 [6] | Ki [6]

C[C@H]1[C@H](NC(=O)/C(=N\OC(C)(C)C(=O)O)c2csc(N)n2)C(=O)N1S(=O)(=O)O [AZTREONAM]
Not Active: IC50 [1] | IC50 [2] | IC50 [3] | Ki [3] | IC50 [4] | Ki [4] | IC50 (Interstitial collagenase) | IC50 [5] | Ki [5] | IC50 [6] | Ki [6]

O=C(O)CCNC(=O)c1ccc(/N=N/c2ccc(O)c(C(=O)O)c2)cc1 [BALSALAZIDE]
Not Active: IC50 [1] | IC50 [2] | IC50 [3] | Ki [3] | IC50 [4] | Ki [4] | IC50 (Interstitial collagenase) | IC50 [5] | Ki [5] | IC50 [6] | Ki [6]

COc1cc(OC)c(C(=O)CCCN2CCCC2)c(OC)c1 [BUFLOMEDIL]
Not Active: IC50 [1] | IC50 [2] | IC50 [3] | Ki [3] | IC50 [4] | Ki [4] | IC50 (Interstitial collagenase) | IC50 [5] | Ki [5] | IC50 [6] | Ki [6]

Cn1c(=O)c2c(ncn2C)n(C)c1=O [CAFFEINE]
Not Active: IC50 [1] | IC50 [2] | IC50 [3] | Ki [3] | IC50 [4] | Ki [4] | IC50 (Interstitial collagenase) | IC50 [5] | Ki [5] | IC50 [6] | Ki [6]

ClC(Cl)(Cl)Cl [CARBON TETRACHLORIDE]
Not Active: IC50 [1] | IC50 [2] | IC50 [3] | Ki [3] | IC50 [4] | Ki [4] | IC50 (Interstitial collagenase) | IC50 [5] | Ki [5] | IC50 [6] | Ki [6]

CO/N=C(\C(=O)N[C@@H]1C(=O)N2C(C(=O)O)=C(COC(C)=O)CS[C@H]12)c1csc(N)n1 [CEFOTAXIME]
Not Active: IC50 [1] | IC50 [2] | IC50 [3] | Ki [3] | IC50 [4] | Ki [4] | IC50 (Interstitial collagenase) | IC50 [5] | Ki [5] | IC50 [6] | Ki [6]

CNC1=Nc2ccc(Cl)cc2C(c2ccccc2)=[N+]([O-])C1 [CHLORDIAZEPOXIDE]
Not Active: IC50 [1] | IC50 [2] | IC50 [3] | Ki [3] | IC50 [4] | Ki [4] | IC50 (Interstitial collagenase) | IC50 [5] | Ki [5] | IC50 [6] | Ki [6]

Cc1cc(O)cc(C)c1Cl [CHLOROXYLENOL]
Not Active: IC50 [1] | IC50 [2] | IC50 [3] | Ki [3] | IC50 [4] | Ki [4] | IC50 (Interstitial collagenase) | IC50 [5] | Ki [5] | IC50 [6] | Ki [6]

CCCNC(=O)NS(=O)(=O)c1ccc(Cl)cc1 [CHLORPROPAMIDE]
Not Active: IC50 [1] | IC50 [2] | IC50 [3] | Ki [3] | IC50 [4] | Ki [4] | IC50 (Interstitial collagenase) | IC50 [5] | Ki [5] | IC50 [6] | Ki [6]

NS(=O)(=O)c1cc(C2(O)NC(=O)c3ccccc32)ccc1Cl (stereo unspecified) [CHLORTHALIDONE]
Not Active: IC50 [1] | IC50 [2] | IC50 [3] | Ki [3] | IC50 [4] | Ki [4] | IC50 (Interstitial collagenase) | IC50 [5] | Ki [5] | IC50 [6] | Ki [6]

O=C(O)CC(O)(CC(=O)O)C(=O)O [CITRIC ACID]
Not Active: IC50 [1] | IC50 [2] | IC50 [3] | Ki [3] | IC50 [4] | Ki [4] | IC50 (Interstitial collagenase) | IC50 [5] | Ki [5] | IC50 [6] | Ki [6]

CC(C)NCC(O)c1ccccc1Cl (stereo unspecified) [CLORPRENALINE]
Not Active: IC50 [1] | IC50 [2] | IC50 [3] | Ki [3] | IC50 [4] | Ki [4] | IC50 (Interstitial collagenase) | IC50 [5] | Ki [5] | IC50 [6] | Ki [6]

CN1CCN(C(c2ccccc2)c2ccccc2)CC1 [CYCLIZINE]
Not Active: IC50 [1] | IC50 [2] | IC50 [3] | Ki [3] | IC50 [4] | Ki [4] | IC50 (Interstitial collagenase) | IC50 [5] | Ki [5] | IC50 [6] | Ki [6]

CN1C[C@@H]2C[C@H]1CN2c1cc2c(cc1F)c(=O)c(C(=O)O)cn2C1CC1 [DANOFLOXACIN]
Not Active: IC50 [1] | IC50 [2] | IC50 [3] | Ki [3] | IC50 [4] | Ki [4] | IC50 (Interstitial collagenase) | IC50 [5] | Ki [5] | IC50 [6] | Ki [6]

COc1cccc2c1C(=O)c1c(O)c3c(c(O)c1C2=O)C[C@@](O)(C(C)=O)C[C@@H]3O[C@H]1C[C@H](N)[C@H](O)[C@H](C)O1 [DAUNORUBICIN]
Not Active: IC50 [1] | IC50 [2] | IC50 [3] | Ki [3] | IC50 [4] | Ki [4] | IC50 (Interstitial collagenase) | IC50 [5] | Ki [5] | IC50 [6] | Ki [6]

O=C(O)c1cc(-c2ccc(F)cc2F)ccc1O [DIFLUNISAL]
Not Active: IC50 [1] | IC50 [2] | IC50 [3] | Ki [3] | IC50 [4] | Ki [4] | IC50 (Interstitial collagenase) | IC50 [5] | Ki [5] | IC50 [6] | Ki [6]

C[S+](C)[O-] [DIMETHYL SULFOXIDE]
Not Active: IC50 [1] | IC50 [2] | IC50 [3] | Ki [3] | IC50 [4] | Ki [4] | IC50 (Interstitial collagenase) | IC50 [5] | Ki [5] | IC50 [6] | Ki [6]

CC1=NN(c2ccccc2)C(=O)C1 [EDARAVONE]
Not Active: IC50 [1] | IC50 [2] | IC50 [3] | Ki [3] | IC50 [4] | Ki [4] | IC50 (Interstitial collagenase) | IC50 [5] | Ki [5] | IC50 [6] | Ki [6]
